These are literature values, as cited in patent US20120184751A1, “POLYMORPHIC FORM OF OLMESARTAN MEDOXOMIL” (RANBAXY LABORATORIES LIMITED, priority 2009, published 2012).

The conditions of the series: 75% relative humidity at 40° C. for one month.

Regarding `CCCc1nc(C(C)(C)O)c(C(=O)OCc2oc(=O)oc2C)n1Cc1ccc(-c2ccccc2-c2nnn[nH]2)cc1` [amorphous olmesartan medoxomil, 2,3-dihydroxy-2-butenyl-4-(1-hydroxy-1-methylethyl)-2-propyl-1-[p-(o-1H-tetrazol-5-ylphenyl)benzyl]imidazole-5-carboxylate, cyclic 2,3-carbonate], the “solid-state stability / form conversion on storage” value is “converts into hydrated olmesartan medoxomil having crystalline appearance”.
